Measurements from patent publication US11866712B2, “System based on the reassembly of GFP for studying the trans-translational activity and identifying new antibiotics” (UNIVERSITE DE RENNES 1, priority 2018, dated 2024).
“Also recorded” adds a separate entry of the source.

Legend:
[1] = tested on: transcription and translation; experiment: in vitro translation control: production of fluorescent sfalaGFP from PCR product in PURExpress kit; format: biochemical, Escherichia coli; conditions: KKL-35 10 μM added to the sfalaGFP PCR product; FIG. 3(A)
Protocol: (§1) In order to evaluate the tmRNA labeling activity in vitro, the present inventors used a reconstituted cell-free protein synthesis system (PURE for Protein Synthesis Using Recombinant Elements) (Shimizu et al., Nature Biotechnol., 2001, 19(8): 751-755). The experiments were carried out using the PURExpress® commercial kit (sold by New England Biolabs) containing all the purified components of Escherichia coli that are required to carry out both the transcription and the translation. In order to convert this kit into an in vitro fluorescent trans-translation system, the inventors added the components required for the trans-translation: tmRNAGFP11, the SmpB protein, and a non-stop DNA sequence encoding the first 10 domains of sfGFP (see Materials and Methods section).
Translation and trans-translation assays. The in vitro translation reactions were carried out according to the recommendations of New England Biolabs. […]
(§2) Analysis by fluorescence. After overnight incubation at 37° C., the reaction volume was adjusted to 125 μL and transferred into a cuvette for analysis by fluorescence using an LS 55 fluorescence spectrometer (Perkin Elmer). The fluorescence intensity at 510 nm of the trans-translated sfalaGFP was determined using an excitation at 485 nm.
The inventors first of all confirmed that there was no fluorescence generated by the components of the PURExpress® kit (see FIG. 3). […]

[2] = tested on: trans-translation; experiment: in vitro trans-translation assay (PURExpress kit, tmRNAGFP11, SmpB, sfGFP1-10 nonstop; GFP fluorescence); format: biochemical, Escherichia coli; conditions: concentration of 10 μM; FIG. 3(B)
Protocol: as §1
Translation and trans-translation assays. The in vitro translation reactions were carried out according to the recommendations of New England Biolabs. The in vitro trans-translation assays were carried out in various steps using the PURExpress® protein synthesis kit (New England Biolabs). […]
as §2, with “nm. […]” for “nm.”

[3] = tested on: translation; conditions: known from Ramadoss et al., PNAS USA, 2013; cited from earlier work

O=C(Nc1nnc(-c2ccc(F)cc2)o1)c1ccc(Cl)cc1 [KKL-35]
inhibition of transcription and of translation (anti-transcription and anti-translation activity) [1]: No inhibition; also recorded: absence | activity against the trans-translation [2]: slight activity | anti-translation activity [3]: strong
